Measured values from paper PMC10609081, “In Vivo Trafficking of the Anticancer Drug Tris(8-Quinolinolato) Gallium (III) (KP46) by Gallium-68/67 PET/SPECT Imaging” (Molecules, 2023).

Tests used:
[1] = Octanol extraction of serum, urine and gut contents after oral radiolabelled KP46 (speciation); assay type: in vivo, mice; conditions: 4 h
Description: Serum and urine from the “tracer level” group (E) were subjected to octanol extraction 24 h postadministration to determine the fraction of ^67Ga that may have survived in the form of [^67Ga]KP46 after absorption from the gut.
Oral [^68/67Ga]KP46: The protocol for oral administration experiments reported here was devised on the basis of pilot experiments described in Supplementary Materials (Figure S12). For short-term (up to 4 h) studies with ^68Ga, awake (nonanaesthetised, to avoid suppressive effects of anaesthesia on digestive tract activity) mice that had been fasted for up to 14 h were given [^68Ga]KP46 (5–13 MBq) (group C, “tracer”, n = 3) or [^68Ga]KP46 and KP46 (5–8.5 MBq) (group D, “bulk”, n = 3) by oral gavage. The dose given orally to group D animals, prepared as described above, was 0.4 μmol in 400 μL, molar activity ca. 25 MBq/μmol. The mice were fasted for three hours before being anaesthetised and PET/CT scanned dynamically for one hour (see below for scanning protocol). After scanning, mice in both groups were culled by neck dislocation while still anaesthetised four hours post-oral administration for organ harvesting and gamma counting. Samples of blood, urine and contents of stomach, small intestine and large intestine (the organs/tissue with measurable activity; tumours were not included as they were insufficiently radioactive) from the mice in group C were used for octanol extraction (shake-flask method) to separate water-soluble (released) and lipid-soluble (intact KP46) ^68Ga. Serum samples were prepared by placing blood samples in a serum separator tube (brand VS367954, Fisher Scientific Ltd., Loughborough, UK) and centrifuging at 3000 rpm for 10 min. Serum (200–300 µL) and urine samples (150–180 µL, taken from the excised bladders) were directly added to Eppendorf tubes containing a pre-equilibrated mixture of octanol (500 µL) and water (500 µL). The tubes were vortexed for two minutes on a Multi Vortex Mixer V-32 (Grant Bio). After separation of layers, a sample of 400 µL from each layer was transferred to fresh Eppendorf tubes and analysed with a gamma counter. Stomach content (72–77 mg), small intestine content (35–88 mg), and large intestine content (86–100 mg) samples from each mouse were analysed similarly by adding them directly to Eppendorf tubes containing a pre-equilibrated mixture of octanol (500 µL) and water (500 µL) before vortexing and centrifuging at 10,000 rpm for 10 min at 4 °C. From each layer, 430 µL was transferred to fresh Eppendorf tubes and analysed with a gamma counter; the solid residues were also counted. Tissues from mice in group D were used after radioactive decay for measurements of nonradioactive ^69Ga content.

[2] = Pilot study 1: oral [68Ga]KP46, mice kept anaesthetised for four hours, ex vivo biodistribution; assay type: in vivo; conditions: anaesthetised 0-4 h
Description: 67Ga citrate to 67Ga chloride conversion method
67Ga was provided as [67Ga]Ga-citrate, typically 418-430 MBq in 5.5 ml at the time of receipt (76-78 MBq/ml). The 67Ga-citrate solution was passed through a Sep-Pak plus light silica cartridge (part number WAT023537) at a flow rate of 1 ml/min to trap the 67Ga on the silica cartridge. The eluate was passed through again to capture more (total 80%) of the available radioactivity on the cartridge.
The cartridge was then washed twice with 5 ml of H2O to remove citric acid, then eluted with 600 µl of 0.1 M HCl in 50 µl fractions. Fractions with the highest activity (fraction 4, 5, and 6) were used for […]
Tumour xenograft development
500 Figure S11. Tumour growth profile of A375
400 human melanoma cells in female athymic nude mice (2.5 x 10^6 cells). Data are 300 reported as mean ± SD (n=24).
Developing a method for the oral administration of [68Ga]KP46
In the first pilot study, mice bearing a tumour xenograft (A375) were anaesthetised, orally administered with [68Ga]KP46 (10 MBq, 400 µl) and PET scanned (no CT scan was performed) for four hours (n = 1), or orally administered with [68Ga]KP46 (1–2 MBq, 400 µl) and kept anaesthetised for four hours (n = 3), before being culled for organ harvesting and gamma counting. […]
radioactivity was in the stomach, with minimal uptake in the small intestine. […]

[3] = after removal of solids, octanol extraction, group C
[4] = not extracted into octanol or water, oral tracer (group C)
[5] = octanol extraction, oral tracer (group C)

[68Ga+3].[O-]c1cccc2cccnc12.[O-]c1cccc2cccnc12.[O-]c1cccc2cccnc12 [[^68Ga]KP46]
soluble radioactivity in aqueous phase, large intestine [1, 3]: 95.5% ± 4.2%
soluble radioactivity in aqueous phase, small intestine [1, 3]: 95% ± 2.5%
soluble radioactivity in aqueous phase, stomach [1, 3]: 76.8% ± 8.7%
activity present in solids, large intestine contents [1, 4]: 83.7% ± 8.8%
activity present in solids, small intestine contents [1, 4]: 80.7% ± 19.4%
activity present in solids, stomach contents [1, 4]: 82.9% ± 10.7%
68Ga in aqueous phase, serum [1, 5]: 98.6% ± 1.5%
68Ga in aqueous phase, urine [1, 5]: 98.2% ± 1.7%
activity in tumour, ex vivo [2]: 0.6 ± 0.3 %ID/g
